What was measured:
[1] = UV absorption maximum of product; type: physicochemical
Method: 20 g of (E)-3-(2,4,5-trimethoxyphenyl)acrylic acid (84 mmol; 1 eq.) are dissolved in 100 ml of dimethylformamide in an argon-flushed three-necked flask, and 11.1 g of diisopropylcarbodiimide (88.1 mmol, 1.05 eq.) are added. After 30 min, ascorbic acid (22.2 g, 126 mmol; 1.5 eq.) dissolved in 45 ml of dimethylformamide is added dropwise. After 30 min at 0° C., the mixture is stirred at room temperature for a further 6 hours. The reaction solution is evaporated to dryness, suspended in ethyl acetate/hexane 1:1 and filtered, and the product is precipitated as a pale-yellow solid by addition of hexane (λmax=354 nm).

[2] = cited from earlier work; for specific absorbance at the absorbance maximum (ε): MeOH

Row | SMILES | λmax [1] | specific absorbance at the absorbance maximum (ε) [2] | λmax(MeOH) [2]
1 | COc1cc(OC)c(OC)cc1/C=C/C(=O)OC[C@@H](O)[C@H]1OC(=O)C(O)=C1O [Example 4, (R)-2-((R)-3,4-dihydroxy-5-oxo-2,5-dihydrofuran-2-yl)-2-hydroxyethyl (E)-3-(2,4,5-trimethoxyphenyl)acrylate] | 354 nm | – | –
2 | CCCCC(CC)COC(=O)/C=C\c1ccc(OC)cc1 (stereo not drawn) [cis-EHMC] | – | 13,500 | 304 nm
3 | CCCCC(CC)COC(=O)/C=C/c1ccc(OC)cc1 (stereo not drawn) [trans-EHMC] | – | 24,550 | 309 nm

Source: patent US8598228B2, “Cinnamic acid ascorbates” (Merck Patent GmbH, priority 2009, dated 2013)
